From patent EP1016409B1, “FREEZE DRIED COMPOSITION COMPRISING GLYCOSPHINGOLIPIDS” (KIRIN BEER KABUSHIKI KAISHA, priority 1997, dated 1998)

Key:
Assay type in all cases: physicochemical
[1] = Optimal amount of Polysorbate 20: solubility of the solution after storage, by naked eye; set-up: key: + not dissolved (or deposited); - dissolved; conditions: KRN7000 200 µg/ml, 25°C
Method: (§1) Next, 20 mg of the active component (KRN7000) was weighed and stirred in 100 ml of the Polysorbate solutions having a variety of concentrations in a heated bath at 80°C for 20 minutes in order to form a solution. After cooling with running water, the mixture was filtered through a 0.22 µm filter, and transparent colorless glass vials having a volume of 5 ml were charged with a 2 ml portion of each of a variety of solutions and sealed up.
These samples were stored at 25°C for 2 weeks, and judged of their solubility. The samples judged in solution were further stored, and judged again of their solubility after 1 month.
(§2) The solubility was judged by cleaning the outside of the vial and placing it beneath the white light source in the darkroom for observation with naked eye at the position of a luminous intensity of about 5,000 lux. When the sample was clear with no precipitates, it was judged that the active component was dissolved.

[2] = Lyophilized preparations with Polysorbate 20 alone: re-solubility immediately after lyophilization; conditions: KRN7000 200 µg/ml, no excipient, reconstituted in 1 ml distilled water for injection
Method: as §1, with “bath to” for “bath at”, “a 1” for “a 2”, “and subjected to lyophilizaiton. Lyophilization was carried out under the condition of preliminary freezing at -40°C for 2 hours and drying at -20°C for 24 hours, 10°C for 12 hours, and finally at 25°C for 5 hours to give the lyophilized product. The degree of vacuum was set at 0.1 Torr or less during drying step.” for “and sealed up.”
After the lyophilization step, the lyophilized composition was reconstituted in 1 ml of distilled water for injection, left standing for 30 minutes, and solubility was judged when the foams generated on reconstituiton disappeared.
as §2, with “in a” for “in the”

[3] = Excipient appropriate to lyophilization 1: re-solubility immediately after lyophilization; conditions: KRN7000 200 µg/ml, Polysorbate 20 0.5%
Method: A variety of monosaccharides and disaccharides were used for examination of excipients of the lyophilized preparation. In this context, the active component (KRN7000) was set at the concentration of 200 µg/ml, and Polysorbate 20 which is used only in a limited amount from the viewpoint of safety was set at the concentration of 0.5% in the following examination.
First, Polysorbate 20 was dissolved in distilled water in a concentration of 0.5%, and the saccharides were dissolved in such concentrations as listed in Table 6. Next, 20 mg of the active component (KRN7000) was weighed and stirred in 100 ml of the solvents in a heated bath to 80°C for 20 minutes in order to form a solution. After cooling with running water, the mixture was filtered through a 0.22 µm filter, and transparent colorless glass vials having a volume of 5 ml were charged with a 1 ml portion of each of a variety of solutions thus obtained and subjected to lyophilization. Lyophilization was carried out under the condition of preliminary freezing at -40°C for 2 hours and drying at -20°C for 24 hours, 10°C for 12 hours, and finally at 25°C for 5 hours to give the lyophilized product. The degree of vacuum was set at 0.1 Torr or less during drying step.
After the lyophilization step, the lyophilized composition was reconstituted in 1 ml of distilled water for injection, left standing for 30 minutes, and solubility was judged when the foams generated on reconstitution disappeared.
as §2, with “in a” for “in the”

Variation with the passage of time after storage (by naked eye) ([1]; Polysorbate 20 0.1%, 2 weeks): + | Variation with the passage of time after storage (by naked eye) ([1]; Polysorbate 20 0.2%, 2 weeks): + | Variation with the passage of time after storage (by naked eye) ([1]; Polysorbate 20 0.3%, 1 month): + | Variation with the passage of time after storage (by naked eye) ([1]; Polysorbate 20 0.3%, 2 weeks): - | Variation with the passage of time after storage (by naked eye) ([1]; Polysorbate 20 0.5%, 1 month): + | Variation with the passage of time after storage (by naked eye) ([1]; Polysorbate 20 0.5%, 2 weeks): - | Variation with the passage of time after storage (by naked eye) ([1]; Polysorbate 20 1.0%, 1 month): + | Variation with the passage of time after storage (by naked eye) ([1]; Polysorbate 20 1.0%, 2 weeks): - | Variation with the passage of time after storage (by naked eye) ([1]; Polysorbate 20 2.0%, 1 month): + | Variation with the passage of time after storage (by naked eye) ([1]; Polysorbate 20 2.0%, 2 weeks): - | Variation with the passage of time after storage (by naked eye) ([1]; Polysorbate 20 4.0%, 1 month): + | Variation with the passage of time after storage (by naked eye) ([1]; Polysorbate 20 4.0%, 2 weeks): - | Variation with the passage of time after storage (by naked eye) ([1]; Polysorbate 20 8.0%, 1 month): + | Variation with the passage of time after storage (by naked eye) ([1]; Polysorbate 20 8.0%, 2 weeks): - | Re-solubility immediately after lyophilization (by naked eye) ([2]; Polysorbate 20 0.5%): + (+ not dissolved (or deposited)) | Re-solubility immediately after lyophilization (by naked eye) ([2]; Polysorbate 20 1.0%): + (+ not dissolved (or deposited)) | Re-solubility immediately after lyophilization (by naked eye) ([2]; Polysorbate 20 2.0%): + (+ not dissolved (or deposited)) | Re-solubility immediately after lyophilization ([3]; Fructose 5%): + (+ not dissolved (or deposited)) | Re-solubility immediately after lyophilization ([3]; Fructose 10%): + (+ not dissolved (or deposited)) | Re-solubility immediately after lyophilization ([3]; Glucose 5%): - (- dissolved) | Re-solubility immediately after lyophilization ([3]; Glucose 10%): + (+ not dissolved (or deposited)) | Re-solubility immediately after lyophilization ([3]; Lactose 5%): + (+ not dissolved (or deposited)) | Re-solubility immediately after lyophilization ([3]; Lactose 10%): + (+ not dissolved (or deposited)) | Re-solubility immediately after lyophilization ([3]; Maltose 1.5%): + (+ not dissolved (or deposited)) | Re-solubility immediately after lyophilization ([3]; Maltose 3%): + (+ not dissolved (or deposited)) | Re-solubility immediately after lyophilization ([3]; Mannitol 5%): + (+ not dissolved (or deposited)) | Re-solubility immediately after lyophilization ([3]; Mannitol 10%): - (- dissolved) | Re-solubility immediately after lyophilization ([3]; Sorbitol 5%): + (+ not dissolved (or deposited)) | Re-solubility immediately after lyophilization ([3]; Sorbitol 10%): + (+ not dissolved (or deposited)) | Re-solubility immediately after lyophilization ([3]; Sucrose 4.8%): - (- dissolved) | Re-solubility immediately after lyophilization ([3]; Sucrose 9.6%): - (- dissolved) | Re-solubility immediately after lyophilization ([3]; Xylitol 4.3%): + (+ not dissolved (or deposited)) | Re-solubility immediately after lyophilization ([3]; Xylitol 8.6%): + (+ not dissolved (or deposited))
SMILES: CCCCCCCCCCCCCCCCCCCCCCCCCC(=O)N[C@@H](CO[C@H]1O[C@H](CO)[C@H](O)[C@H](O)[C@H]1O)[C@H](O)[C@H](O)CCCCCCCCCCCCCC [KRN7000, (2S,3S,4R)-1-(α-D-galactopyranosyloxy)-2-hexacosanoylamino-3,4-octadecanediol]
